Experimental data published in US6462055B2, “Alpha-methylbenzyl-containing thiourea inhibitors of herpes viruses containing a phenylenediamine group” (Wyeth, priority 1998, dated 2002).
In brackets after ≈: the same amount, converted by molar mass.

Columns and labels:
[1] = test system: HCMV recombinant mutant virus (RV145); test: microbe, parasite or virus in culture; format: cell-based, human cytomegalovirus; conditions: for IC50: Human betaherpesvirus 5, read-out: IC50 ug/ml HCMV, HCMV
Outline: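 Human foreskin fibroblasts infected with HCMV RV145 carrying a viral-promoter-driven beta-glucuronidase gene, in presence of compound. At 96 h post-infection, lysates assayed for beta-glucuronidase with colorimetric or fluorogenic glucuronide substrate as replication read-out. IC50 estimated from varying inhibitor amounts.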

HSV-1 = test: HSV Antiviral (ELISA) Assay in Vero cells; format: cell-based, herpes simplex virus type 1; conditions: HSV-1, Vero cells; for IC50: Human alphaherpesvirus 1, read-out: IC50 (ug/ml) HSV
Outline: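 Viral replication was quantified by cell-fixed ELISA for HSV glycoprotein D, using a β-galactosidase reporter and fluorogenic umbelliferyl substrate, about 24 h after HSV-1 infection (MOI 0.006) of Vero cells. Compounds, at several concentrations, were added 30 min pre-infection. IC50 was derived from fluorescence relative to the compound-free signal.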

VZV strain Ellen = test: VZV Antiviral (ELISA) Assay in human foreskin fibroblast cells; format: cell-based, varicella-zoster virus; conditions: for IC50 / inhibition at 10 µg/mL: Human alphaherpesvirus 3, Fibroblast; for IC50: read-out: IC50 (ug/ml) VZV; for inhibition at 10 µg/mL: read-out: % inhibition 10 ug/ml VZV, 10 ug/ml
Outline: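 Cell-based VZV (Ellen) spread assay in HFF, 3-day compound exposure in 2% FBS medium. Viral antigen quantified by fluorescent β-galactosidase ELISA; IC50 from inhibition of signal.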

Structure (SMILES) | IC50 ug/ml HCMV [1] [µg/mL] | IC50 (ug/ml) HSV (HSV-1) [µg/mL] | IC50 (ug/ml) VZV (VZV strain Ellen) [µg/mL] | IC50 [1] [µg/mL] | IC50 (HSV-1) [µg/mL] | IC50 (VZV strain Ellen) [µg/mL] | inhibition at 10 µg/mL (VZV strain Ellen) [%] | % inhibition 10 ug/ml VZV (VZV strain Ellen; 10 ug/ml) [%]
O=C(Nc1ccc(NC(=S)NC(Cc2ccccc2)c2ccc(F)cc2)cc1)c1ccccc1F (centres unmarked) [Example 774] | 0.5 (≈ 1.03 µM) | >10 | >7.5 | – | – | – | – | –
Cc1ccccc1C(C)NC(=S)Nc1ccc(NC(=O)c2ccccc2F)cc1 (centres unmarked) [Example 775] | 1 (≈ 2.45 µM) | >10 | >7.5 | – | – | – | – | –
Cc1cccc(C(C)NC(=S)Nc2ccc(NC(=O)c3ccccc3F)cc2)c1 (centres unmarked) [Example 776] | 0.9 (≈ 2.21 µM) | >10 | >7.5 | – | – | – | – | –
COc1ccc(C(C)NC(=S)Nc2ccc(NC(=O)c3ccccc3F)cc2)cc1 (centres unmarked) [Example 777] | 1.7 (≈ 4.01 µM) | >10 | >7.5 | – | – | – | – | –
CC(NC(=S)Nc1ccc(NC(=O)c2ccccc2F)cc1)c1ccccc1F (centres unmarked) [Example 778] | – | – | – | 0.8 (≈ 1.94 µM) | > 10 | 3 (≈ 7.29 µM) | – | –
CC(NC(=S)Nc1ccc(NC(=O)c2ccccc2F)cc1)c1cccc(Cl)c1 (centres unmarked) [Example 779] | 1.2 (≈ 2.8 µM) | >10 | >7.5 | – | – | – | – | –
CC(NC(=S)Nc1ccc(NC(=O)c2ccccc2F)cc1)c1cccc(Br)c1 (centres unmarked) [Example 780] | 1 (≈ 2.12 µM) | >10 | 1.2 (≈ 2.54 µM) | – | – | – | – | –
CC(NC(=S)Nc1ccc(NC(=O)c2ccccc2F)cc1)c1ccc(Cl)cc1 (centres unmarked) [Example 781] | 1.8 (≈ 4.21 µM) | >10 | 0.6 (≈ 1.4 µM) | – | – | – | – | –
Cc1ccc(C(C)NC(=S)Nc2ccc(NC(=O)c3ccccc3F)cc2)cc1 (centres unmarked) [Example 782] | 0.9 (≈ 2.21 µM) | >10 | 3 (≈ 7.36 µM) | – | – | – | – | –
CC(NC(=S)Nc1ccc(NC(=O)c2ccccc2F)cc1)c1ccccc1Br (centres unmarked) [Example 783] | 1.1 (≈ 2.33 µM) | >10 | 0.3 (≈ 0.635 µM) | – | – | – | – | –
CC(NC(=S)Nc1ccc(NC(=O)c2ccccc2F)cc1)c1ccccc1Cl (centres unmarked) [Example 784] | 1.1 (≈ 2.57 µM) | >10 | 0.7 (≈ 1.64 µM) | – | – | – | – | –
CC(NC(=S)Nc1ccc(NC(=O)c2ccccc2F)cc1)c1ccccc1C(F)(F)F (centres unmarked) [Example 785] | – | – | – | > 2.2 | > 10 | > 7.5 | – | –
COc1ccccc1C(C)NC(=S)Nc1ccc(NC(=O)c2ccccc2F)cc1 (centres unmarked) [Example 788] | 1.8 (≈ 4.25 µM) | >10 | >7.5 | – | – | – | – | –
COc1cccc(C(C)NC(=S)Nc2ccc(NC(=O)c3ccccc3F)cc2)c1 (centres unmarked) [Example 789] | >2.2 | >10 | 1.5 (≈ 3.54 µM) | – | – | – | – | –
CC(C)C(NC(=S)Nc1ccc(NC(=O)c2ccccc2F)cc1)c1ccc(F)cc1 (centres unmarked) [Example 790] | 1.5 (≈ 3.41 µM) | >10 | 2.5 (≈ 5.69 µM) | – | – | – | – | –
CC(NC(=S)Nc1ccc(NC(=O)c2ccccc2F)cc1)c1ccc(C#N)cc1 (centres unmarked) [Example 792] | – | – | – | 5 (≈ 11.9 µM) | > 10 | > 7.5 | – | –
CC(NC(=S)Nc1ccc(NC(=O)c2ccccc2F)cc1)c1ccc(N(C)C)cc1 (centres unmarked) [Example 793] | 3.2 (≈ 7.33 µM) | 9 (≈ 20.6 µM) | 3.1 (≈ 7.1 µM) | – | – | – | – | –
CC(NC(=S)Nc1ccc(NC(=O)c2ccccc2F)cc1)c1cccc(N(C)C)c1 (centres unmarked) [Example 794] | 6.2 (≈ 14.2 µM) | 7 (≈ 16 µM) | 0.4 (≈ 0.916 µM) | – | – | – | – | –
CC(NC(=S)Nc1ccc(NC(=O)c2ccccc2Br)cc1)c1ccc(F)cc1 (centres unmarked) [Example 795] | 4.1 (≈ 8.68 µM) | 8.6 (≈ 18.2 µM) | >7.5 | – | – | – | – | –
O=C(Nc1ccc(NC(=S)NC(CO)c2ccccc2)cc1)c1ccccc1F (centres unmarked) [Example 797] | – | – | – | > 10 | > 10 | 1.7 (≈ 4.15 µM) | – | –

Structure (SMILES) | IC50 ug/ml HCMV [1] [µg/mL] | IC50 (ug/ml) HSV (HSV-1) [µg/mL] | IC50 (ug/ml) VZV (VZV strain Ellen) [µg/mL] | IC50 [1] [µg/mL] | IC50 (HSV-1) [µg/mL] | IC50 (VZV strain Ellen) [µg/mL] | inhibition at 10 µg/mL (VZV strain Ellen) [%] | % inhibition 10 ug/ml VZV (VZV strain Ellen; 10 ug/ml) [%]
CC(NC(=S)Nc1ccc(NC(=O)c2ccccc2F)cc1)c1ccc2ccccc2c1 (centres unmarked) [Example 799] | 1.7 (≈ 3.83 µM) | >10 | >7.5 | – | – | – | – | –
CC(NC(=S)Nc1ccc(NC(=O)c2cccc(F)c2)cc1)c1ccc(F)cc1 (centres unmarked) [Example 800] | – | – | – | > 10 | > 10 | > 7.5 | – | –
CC(NC(=S)Nc1ccc(NC(=O)c2ccc(F)cc2)cc1)c1ccc(F)cc1 (centres unmarked) [Example 801] | – | – | – | > 10 | > 10 | > 7.5 | – | –
CCOc1ccc(NC(=S)Nc2ccc(NC(=O)c3ccccc3F)cc2)cc1Cl [Example 806] | >10 | >10 | >7.5 | – | – | – | – | –
CC(C)Oc1ccc(NC(=S)Nc2ccc(NC(=O)c3ccccc3F)cc2)cc1Cl [Example 808] | >10 | >10 | >7.5 | – | – | – | – | –
CCCCOc1ccc(NC(=S)Nc2ccc(NC(=O)c3ccccc3F)cc2)cc1Cl [Example 809] | >10 | >10 | >7.5 | – | – | – | – | –
COc1ccc(NC(=S)Nc2ccc(NC(=O)c3ccccc3F)cc2)cc1Br [Example 811] | 3.1 (≈ 6.54 µM) | 0.8 (≈ 1.69 µM) | >7.5 | – | – | – | – | –
COc1cc(C)c(Cl)cc1NC(=S)Nc1ccc(NC(=O)c2ccccc2F)cc1 [Example 849, N-{4-[3-(5-Chloro-2-methoxy-4-methyl-phenyl)-thioureido]-phenyl}-2-fluoro-benzamide] | – | – | – | > 10 | > 10 | > 10 | 38 | –
CN1CCC(N(C)c2ccc(NC(=S)Nc3ccc(NC(=O)c4ccccc4F)cc3)cc2Cl)CC1 [Example 855, N-[4-(3-{3-Chloro-4-[methyl-(1-methyl-piperidin-4-yl)-amino]-phenyl}-thioureido)-phenyl]-2-fluoro-benzamide] | – | – | – | 0.7 (≈ 1.33 µM) | 2.5 (≈ 4.75 µM) | > 10 | 52 | –
O=C(Nc1ccc(NC(=S)Nc2ccccc2)cc1)c1ccccc1F [Example 859, 2-Fluoro-N-[4-(3-phenyl-thioureido)-phenyl]-benzamide] | – | – | – | > 10 | > 10 | > 10 | 20 | –
COc1ccccc1C(=O)Nc1ccc(NC(=S)Nc2cc(Cl)c(OC)c(Cl)c2)cc1 [Example 873] | 0.3 (≈ 0.63 µM) | >10 | >10 | – | – | – | – | 23
O=C(Nc1ccc(NC(=S)Nc2ccc(Cl)c(Cl)c2)cc1)c1ccccc1F [Example 912, N-{4-[3-(3,4-Dichloro-phenyl)-thioureido]-phenyl}-2-fluoro-benzamide] | – | – | – | > 10 | 8 (≈ 18.4 µM) | > 10 | 21 | –
O=C(Nc1ccc(NC(=S)Nc2ccc(F)c(Cl)c2)cc1)c1ccccc1F [Example 922, N-{4-[3-(3-Chloro-4-fluoro-phenyl)-thioureido]-phenyl}-2-fluoro-benzamide] | – | – | – | > 10 | 1 (≈ 2.39 µM) | > 10 | 40 | –
O=C(Nc1ccc(NC(=S)Nc2cc(Cl)ccc2Cl)cc1)c1ccccc1F [Example 931, N-{4-[3-(2,5-Dichloro-phenyl)-thioureido]-phenyl}-2-fluoro-benzamide] | – | – | – | > 10 | 4 (≈ 9.21 µM) | > 10 | 51 | –
O=C(Nc1ccc(NC(=S)Nc2cc(Cl)cc(Cl)c2)cc1)c1ccccc1F [Example 934, N-{4-[3-(3,5-Dichloro-phenyl)-thioureido]-phenyl}-2-fluoro-benzamide] | – | – | – | > 10 | > 10 | > 10 | 18 | –
O=C(Nc1ccc(NC(=S)Nc2cc(Cl)c(Cl)c(Cl)c2)cc1)c1ccccc1F [Example 937, 2-Fluoro-N-{4-[3-(3,4,5-trichloro-phenyl)-thioureido]-phenyl}-benzamide] | – | – | – | 2 (≈ 4.27 µM) | 0.7 (≈ 1.49 µM) | > 10 | 25 | –
COC(=O)c1cccc(NC(=S)Nc2ccc(NC(=O)c3ccccc3F)cc2)c1 [Example 950, 3-{3-[4-(2-Fluoro-benzoylamino)-phenyl]-thioureido}-benzoic acid methyl ester] | – | – | – | > 10 | 8 (≈ 18.9 µM) | > 10 | – | –
O=C(Nc1ccc(NC(=S)Nc2cccc([N+](=O)[O-])c2)cc1)c1ccccc1F [Example 959, 2-Fluoro-N-{4-[3-(3-nitro-phenyl)-thioureido]-phenyl}-benzamide] | – | – | – | > 10 | 0.7 (≈ 1.71 µM) | > 10 | 33 | –
O=C(Nc1ccc(NC(=S)Nc2cccc(F)c2)cc1)c1ccccc1F [Example 962, 2-Fluoro-N-{4-[3-(3-fluoro-phenyl)-thioureido]-phenyl}-benzamide] | – | – | – | > 10 | > 10 | > 10 | 10 | –
